Drawing on patent US4555572A, “Pyrazolo[3,4,5-kl]acridine compositions and methods for their production and use” (Warner-Lambert Company, priority 1984, dated 1985), this text covers IC50, MIC and response vs control in vivo for 12 compounds.

For one test, the system named is L1210 cells. Put plainly: PDC test, L1210 cell growth. The class given is cell-based, murine. Conditions: Mus musculus, read-out: PDC ID50. On the procedure:
(c) Another test protocol is the PDC test. L1210 cells, a murine leukemia cell line, were grown in RPMI 1640 supplemented with 10% fetal bovine serum and genamicin (50 μg/ml). Drug dilutions were prepared in the appropriate solvent and 20 μl of each dilution were added to 24-well Linbro tissue culture plates followed by the addition of 2.0 ml of cell suspension containing 3×10^4 cells per ml. Solvent and medium controls were included in each test. After incubation at 37° C. for three days in 5% CO2 in air, the contents of each well were removed and the cells counted in a ZBI Coulter counter. Per cent growth was calculated relative to the controls and the levels of drug activity were expressed as ID50 in terms of molarity (M).

For a further test, the system named is Alcaligenes viscolactis. Put plainly: in vitro antibacterial (ABMF) microdilution susceptibility test. The class given is cell-based. Conditions: read-out: ABMF Test M.I.C. A. visc. The text has this: (§1) (d) Still another test protocol is the in vitro antibacterial (ABMF) test which is a recognized standard microdilution susceptibility procedure in Mueller-Hinton broth against gram-positive and gram-negative bacterial test organisms. The procedure is a modification of a state-of-the-art procedure reported in Manual of Clinical Microbiology, Lennette, E. H., ed., by Barry, A. L. and C. Thornsberry at pages 463-474 and by Gavan, T. L. and A. L. Barry at pages 459-462, American Society for Microbiology, Washington, 1980.
(§2) In the test, a given bacterial culture is used to inoculate individaul test wells of microdilution trays containing growth medium and test compound, the latter in a microdilution series: 1000, 333, 111, 37, 12, 4, 1.4, and 0.46 micrograms per milliliter. […] For convenience, values are reported for Escherichia coli, Branhamella catarrhalis, Alcaligenes viscolactis, Streptococcus pneumoniae, and Bacillus cereus
(Dilution methods test growth across graded concentrations, often in twofold steps.)

The test system of another test is Bacillus cereus. Described as above. The format is cell-based. Conditions: read-out: ABMF Test M.I.C. B. cere.
Excerpt: as §1, §2

The subject of another test is Branhamella catarrhalis. Described as above. The class given is cell-based. Conditions: Moraxella catarrhalis, read-out: ABMF Test M.I.C. B. cata.
Excerpt: as §1, §2

A further test deals with Escherichia coli. Described as above. Conditions: read-out: ABMF Test M.I.C. E. coli. The class given is cell-based.
Excerpt: as §1, §2

For a further test, the system named is Streptococcus pneumoniae. The test is described as above. The class given is cell-based. Conditions: read-out: ABMF Test M.I.C. S. pneu.
Excerpt: as §1, §2

In test [1] the test system is lymphocytic leukemia P388. Put plainly: in vivo lymphocytic leukemia P388 test. Also noted: species or system CD2 F1 mice. The following applies: Mus musculus, P388, ip, 120 h, intraperitoneally once daily for five days, read-out: P388 in vivo T/C × 100. On the procedure:
Another test protocol is the in vivo lymphocytic leukemia P388 test. The animals used are either male or female CD2 F1 mice, six or seven animals per test group. The tumor transplant is by intraperitoneal injection of dilute ascitic fluid containing cells of lymphocytic leukemia P388. The test compounds are administered intraperitoneally once daily for five consecutive days at various doses following tumor inoculation. The animals are weighed and survivors are recorded on a regular basis for 30 days. A compound is designated "toxic" if, at a given dose, all animals died prior to four days after the first injection of drug. A ratio of survival time for treated (T)/control (C) animals is calculated. A criterion for efficacy is a ratio T/C times 100 greater than or equal to 125. See Cancer Chemotherapy Reports, Part 3, 3, 1 (1972) for a comprehensive discussion of the protocol.

Where [2] appears, read: Mueller-Hinton broth, 37° C., 16-24 hours.

≈ marks a conversion by molar mass, not a printed value. Where a name gives a salt, the structure may show the parent alone. Read-outs that look alike come from different tables or passages of the source. Some results are limits rather than exact numbers.

Consider `CC(=O)Oc1ccc2c(c1)-c1nn(CCCN(C)C)c3ccc([N+](=O)[O-])c(c13)N2` [Example 47, 2-[3-(Dimethylamino)propyl]-5-nitropyrazolo[3,4,5-kl]acridin-9-ol, acetate (ester), methanesulfonate (salt) (1:1)], for which, in the test on L1210 cells (72 h, L1210 cells, three days), the IC50 turned out to be 1.9 nM. The MIC in the test with Alcaligenes viscolactis (setting [2]), with Bacillus cereus (setting [2]), in the test on Branhamella catarrhalis (setting [2]), in the test on Escherichia coli (setting [2]) and in the test on Streptococcus pneumoniae (setting [2]) was < 0.46 µg/mL each time. Further, the response vs control in vivo at 0.39 mg/kg in test [1] (0.39 mg/kg) was 144%. Besides, the response vs control in vivo at 0.78 mg/kg in test [1] (0.78 mg/kg) is 178%.

Take `CCN(CC)CCn1nc2c3c(c([N+](=O)[O-])ccc31)Nc1cc(OC)cc(OC)c1-2.CS(=O)(=O)O.O` [Example 24, N,N-Diethyl-8,10-dimethoxy-5-nitropyrazolo[3,4,5-kl]acridine-2(6H)-ethanamine, methanesulfonate, hydrate (1:1:1)]: the IC50 in the test on L1210 cells (72 h, L1210 cells, three days) stood at 490 nM. Further, the MIC in the test on Alcaligenes viscolactis (setting [2]) was < 0.46 µg/mL; in the test with Bacillus cereus (setting [2]), < 0.46 µg/mL; in the test on Branhamella catarrhalis (setting [2]) it was < 0.46 µg/mL; with Escherichia coli (setting [2]) it was 4.1 µg/mL; in the test with Streptococcus pneumoniae (setting [2]), 1.4 µg/mL.

With `COc1ccc2c(c1)-c1nn(CCCN(C)C)c3c([N+](=O)[O-])cc([N+](=O)[O-])c(c13)N2.CS(=O)(=O)O` [Example 55, N,N-Dimethyl-3,5-dinitro-9-methoxypyrazolo[3,4,5-kl]acridine-2(6H)-propanamine, methanesulfonate (1:1)], the IC50 with L1210 cells (L1210, 72 h) was found to be 220 nM. In addition, the MIC in the test with Alcaligenes viscolactis, with Bacillus cereus, with Branhamella catarrhalis, in the test with Escherichia coli and with Streptococcus pneumoniae was < 0.46 µg/mL throughout.

As for `CN(C)CCn1nc2c3c(c([N+](=O)[O-])ccc31)Nc1ccc(N(C)C)cc1-2` [Example 39, 9-(Dimethylamino)-N,N-dimethyl-5-nitropyrazolo[3,4,5-kl]acridine-2(6H)-ethanamine, methanesulfonate (1:2), dihydrate], the IC50 with L1210 cells (72 h, L1210 cells, three days) came to 600 nM. In addition, the MIC was 1.4 µg/mL in the test on Alcaligenes viscolactis (setting [2]); 12.3 µg/mL with Bacillus cereus (setting [2]); 12.3 µg/mL with Branhamella catarrhalis (setting [2]); 12.3 µg/mL in the test on Escherichia coli (setting [2]); 1.4 µg/mL with Streptococcus pneumoniae (setting [2]). Further, in test [1], the response vs control in vivo at 6.25 mg/kg was determined as 126%. Also, the response vs control in vivo at 12.5 mg/kg in test [1] was determined as 164%. For the same compound, in test [1] (25 mg/kg), the response vs control in vivo at 25 mg/kg was determined as 189%.

`CCN(CC)CCCn1nc2c3c(c([N+](=O)[O-])ccc31)Nc1ccc(OC)cc1-2` [Example 43, N,N-Diethyl-9-methoxy-5-nitropyrazolo[3,4,5-kl]acridine-2(6H)-propanamine, methanesulfonate, hydrate (1:1)]: the IC50 with L1210 cells (72 h, L1210 cells, three days) worked out at 1300 nM. The MIC in the test with Alcaligenes viscolactis (setting [2]) is < 0.46 µg/mL; in the test on Bacillus cereus (setting [2]), 4.1 µg/mL; with Branhamella catarrhalis (setting [2]), 4.1 µg/mL; with Escherichia coli (setting [2]), 1.4 µg/mL; in the test with Streptococcus pneumoniae (setting [2]), < 0.46 µg/mL. Also, the response vs control in vivo at 6.25 mg/kg in test [1] was determined as 165%. The response vs control in vivo at 12.5 mg/kg in test [1] is 184%. Also, in test [1] (50 mg/kg), the response vs control in vivo at 50 mg/kg worked out at 202%.

With `CCCCCCCC(=O)Oc1ccc2c(c1)-c1nn(CCN(CC)CC)c3ccc([N+](=O)[O-])c(c13)N2` [Example 30, Octanoic acid,[2-[2-(diethylamino)ethyl]-2,6-dihydro-5-nitropyrazolo[3,4,5-kl]acridin-9-yl]ester, methanesulfonate (1:1), hemihydrate], in the test with L1210 cells (72 h, L1210 cells, three days), the IC50 worked out at 4.3 nM. Also, the MIC was < 0.46 µg/mL in the test with Alcaligenes viscolactis (setting [2]); 37 µg/mL in the test on Bacillus cereus (setting [2]); 12.3 µg/mL with Branhamella catarrhalis (setting [2]); 37 µg/mL in the test with Escherichia coli (setting [2]); < 0.46 µg/mL in the test with Streptococcus pneumoniae (setting [2]).

Take `CCN(CC)CCn1nc2c3c(c([N+](=O)[O-])cc([N+](=O)[O-])c31)Nc1ccc(OCc3ccc(OC)cc3)cc1-2.CS(=O)(=O)O` [Example 53, N,N-Diethyl-9-[(4-methoxyphenyl)methoxy]-3,5-dinitropyrazolo[3,4,5-kl]acridine-2(6H)-ethanamine, methanesulfonate (1:1)]: the IC50 with L1210 cells (L1210, 72 h) came out at 6.8 nM. Also, the MIC with Alcaligenes viscolactis, in the test with Bacillus cereus, in the test on Branhamella catarrhalis, with Escherichia coli and in the test with Streptococcus pneumoniae was < 0.46 µg/mL each time.

As to `CCOc1ccc2c(c1)-c1nn(CCN(CC)CC)c3c([N+](=O)[O-])cc([N+](=O)[O-])c(c13)N2.CS(=O)(=O)O.O` [Example 51, 9-Ethoxy-N,N-diethyl-3,5-dinitropyrazolo[3,4,5-kl]acridine-2(6H)-ethanamine, methanesulfonate, hydrate], the IC50 with L1210 cells (L1210, 72 h) came out at 380 nM. Further, the MIC is < 0.46 µg/mL with Alcaligenes viscolactis; 333 µg/mL in the test on Bacillus cereus; 333 µg/mL in the test on Branhamella catarrhalis; > 1000 µg/mL in the test on Escherichia coli; 111 µg/mL in the test with Streptococcus pneumoniae.

On to `CCN(CC)CCOc1ccc2c(c1)-c1nn(CCN(CC)CC)c3ccc([N+](=O)[O-])c(c13)N2` [Example 21], for which the IC50 with L1210 cells (72 h, L1210 cells, three days) was 460 nM. Also, the MIC in the test on Alcaligenes viscolactis (setting [2]) was 4.1 µg/mL (≈ 8.79 µM); in the test on Bacillus cereus (setting [2]), 37 µg/mL (≈ 79.3 µM); with Branhamella catarrhalis (setting [2]), 12.3 µg/mL (≈ 26.4 µM); in the test with Escherichia coli (setting [2]), 111 µg/mL (≈ 238 µM); in the test on Streptococcus pneumoniae (setting [2]), 12.3 µg/mL (≈ 26.4 µM).

In the case of `CCN(CC)CCn1nc2c3c(c([N+](=O)[O-])ccc31)Nc1ccc(OC)c(Cl)c1-2` [Example 25, 10-Chloro-N,N-diethyl-9-methoxy-5-nitropyrazolo[3,4,5-kl]acridine-2(6Hethanamine, methanesulfonate, hydrate], the IC50 in the test on L1210 cells (72 h, L1210 cells, three days) amounted to 70 nM. The MIC in the test with Alcaligenes viscolactis (setting [2]), in the test with Bacillus cereus (setting [2]), with Branhamella catarrhalis (setting [2]), in the test on Escherichia coli (setting [2]) and in the test on Streptococcus pneumoniae (setting [2]) was < 0.46 µg/mL throughout.

On to `Cc1ccc2c(c1)-c1nn(CCNCCO)c3ccc([N+](=O)[O-])c(c13)N2.Cl` [Example 42, 2-[[2-(9-Methyl-5-nitropyrazolo[3,4,5-kl]acridin-2(6H)-yl)ethyl]amino]ethanol, monohydrochloride], for which the IC50 in the test on L1210 cells (72 h, L1210 cells, three days) came out at 590 nM. Also, the MIC in the test on Alcaligenes viscolactis (setting [2]), with Bacillus cereus (setting [2]), in the test with Branhamella catarrhalis (setting [2]), with Escherichia coli (setting [2]) and in the test on Streptococcus pneumoniae (setting [2]) was < 0.46 µg/mL throughout.

Regarding `CCN(CC)CCn1nc2c3c(c([N+](=O)[O-])cc([N+](=O)[O-])c31)Nc1ccc(O)cc1-2` [Example 49, 2-[2-(Diethylamino)ethyl]-2,6-dihydro-3,5-dinitropyrazolo[3,4,5-kl]acridin-9-ol, methanesulfonate, hemihydrate], the IC50 in the test on L1210 cells (L1210, 72 h) turned out to be 6.8 nM. Besides, the MIC with Alcaligenes viscolactis, with Bacillus cereus, with Branhamella catarrhalis, in the test with Escherichia coli and with Streptococcus pneumoniae was < 0.46 µg/mL each time.
